Measured values taken from ChEMBL document CHEMBL5380841, “Discovery and Binding Mechanism of Pyrazoloisoquinoline-Based Novel β-Arrestin Inverse Agonists of the Kappa-Opioid Receptor” (J Med Chem, 2023).
Calls of active or inactive are those of the source. The calls are words filed in the database; no cut-off is given here.

target: T1, Kappa-type opioid receptor (Homo sapiens, UniProt P41145); assay: Inverse agonist activity at human KOR assessed as cAMP inhibition pretreated for 5 mins followed by forskolin treatment measured after 15 mins by Glo-Sensor cAMP cell based assay; assay type: functional; conditions: time 20.0 min
T1 sequence (P41145 whole entry): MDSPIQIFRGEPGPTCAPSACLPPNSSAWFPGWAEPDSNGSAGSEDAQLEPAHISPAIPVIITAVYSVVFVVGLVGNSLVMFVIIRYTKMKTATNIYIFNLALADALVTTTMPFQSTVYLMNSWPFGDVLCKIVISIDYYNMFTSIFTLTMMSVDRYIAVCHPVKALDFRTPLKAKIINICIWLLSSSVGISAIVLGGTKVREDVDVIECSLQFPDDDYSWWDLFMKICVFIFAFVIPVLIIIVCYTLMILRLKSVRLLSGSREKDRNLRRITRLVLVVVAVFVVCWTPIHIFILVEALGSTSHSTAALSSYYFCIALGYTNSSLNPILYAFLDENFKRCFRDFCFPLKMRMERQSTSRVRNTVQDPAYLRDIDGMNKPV

With `COc1cccc(CNCc2nn(Cc3cccc(OC)c3)c3nc(-c4ccccc4Cl)c4cc(OC)c(OC)cc4c23)c1` as the compound, how does the Activity read?
Its Activity is “inactive”.

target: T1, Kappa-type opioid receptor; assay: Displacement of [3H]diprenorphine from human KOR expressed in HEK293 cells assessed as maximum inhibition at 10 uM incubated for 60 mins by liquid scintillation method relative to control; assay type: cell-based; conditions: filed as inverse agonist

Which Imax does the source give for `COc1cccc(Cn2nc(CNCc3cccc(OCc4ccccc4)c3)c3c4cc(OC)c(OC)cc4c(-c4ccccc4Cl)nc32)c1` here?
The Imax was 72%.

target: T1, Kappa-type opioid receptor; assay: Displacement of [3H]diprenorphine from human KOR expressed in HEK293 cells assessed as inhibition constant incubated for 60 mins by liquid scintillation method; assay type: cell-based; conditions: not given

How did the Ki turn out when `COc1cccc(Cn2nc(CNCc3cccc(OCc4ccccc4)c3)c3c4cc(OC)c(OC)cc4c(-c4ccccc4Cl)nc32)c1` was run?
The Ki was 0.1 µM.

target: T1, Kappa-type opioid receptor; assay: Inverse agonist activity at human KOR expressed in human HTLA cells assessed as beta arrestin-2 recruitment by ONE-Glo luciferase assay; assay type: functional, cell-based; conditions: not given

`COc1cccc(CNCc2nn(Cc3cccc(OC)c3)c3nc(-c4ccccc4Cl)c4cc(OC)c(OC)cc4c23)c1` was tested. Which EC50 did it give?
The EC50 was 0.127 µM.

How did the EC50 turn out when `COc1cccc(Cn2nc(CNCc3cc4ccccc4[nH]3)c3c4cc(OC)c(OC)cc4c(-c4ccccc4Cl)nc32)c1` was run?
The EC50 was 0.339 µM.

With `COc1cccc(Cn2nc(CNCc3cccc(OCc4ccccc4)c3)c3c4cc(OC)c(OC)cc4c(-c4ccccc4Cl)nc32)c1` as the compound, how does the EC50 read?
The EC50 was 0.00933 µM.

With `COc1cccc(Cn2nc(CNCCc3cccc(Oc4ccccc4)c3)c3c4cc(OC)c(OC)cc4c(-c4ccccc4Cl)nc32)c1` as the compound, how does the EC50 read?
The EC50 was 0.227 µM.

For `O=C(Cc1ccc(Cl)c(Cl)c1)N1CCCC[C@H]1CN1CCCC1`, which EC50 is on record?
The EC50 was 0.0105 µM.

Which EC50 does the source give for `COc1cccc(Cn2nc(CNCc3ccc(OC)c(OC)c3)c3c4cc(OC)c(OC)cc4c(-c4ccccc4Cl)nc32)c1` here?
Its EC50 is 0.643 µM.

With `COc1cc2c(-c3ccccc3Cl)nc3c(c(CNCc4cccc(Oc5ccccc5)c4)nn3Cc3cccc(Cl)c3)c2cc1OC` as the compound, how does the EC50 read?
Its EC50 is 0.105 µM.

For `COc1cccc(Cn2nc(CNCc3cccc(Oc4ccccc4)c3)c3c4cc(OC)c(OC)cc4c(-c4ccccc4Cl)nc32)c1`, which EC50 is on record?
The EC50 was 0.0091 µM.

`COc1ccc(CNCc2nn(Cc3cccc(OC)c3)c3nc(-c4ccccc4Cl)c4cc(OC)c(OC)cc4c23)cc1` was tested. Which EC50 did it give?
Its EC50 is 0.103 µM.

Which EC50 does the source give for `COc1cc2c(-c3ccccc3Cl)nc3c(c(CNCc4cccc(Oc5ccccc5)c4)nn3CC3CCNCC3)c2cc1OC` here?
The EC50 was 2.67 µM.

Which EC50 does the source give for `COc1cccc(Cn2nc(CNCc3cccc4ccccc34)c3c4cc(OC)c(OC)cc4c(-c4ccccc4Cl)nc32)c1` here?
The EC50 was 0.43 µM.

target: Mu-type opioid receptor (Homo sapiens) (UniProt P35372); assay: Inverse agonist activity at human MOR assessed as cAMP inhibition pretreated for 5 mins followed by forskolin treatment measured after 15 mins by Glo-Sensor cAMP cell based assay; assay type: functional; conditions: time 20.0 min
Sequence (P35372 whole entry): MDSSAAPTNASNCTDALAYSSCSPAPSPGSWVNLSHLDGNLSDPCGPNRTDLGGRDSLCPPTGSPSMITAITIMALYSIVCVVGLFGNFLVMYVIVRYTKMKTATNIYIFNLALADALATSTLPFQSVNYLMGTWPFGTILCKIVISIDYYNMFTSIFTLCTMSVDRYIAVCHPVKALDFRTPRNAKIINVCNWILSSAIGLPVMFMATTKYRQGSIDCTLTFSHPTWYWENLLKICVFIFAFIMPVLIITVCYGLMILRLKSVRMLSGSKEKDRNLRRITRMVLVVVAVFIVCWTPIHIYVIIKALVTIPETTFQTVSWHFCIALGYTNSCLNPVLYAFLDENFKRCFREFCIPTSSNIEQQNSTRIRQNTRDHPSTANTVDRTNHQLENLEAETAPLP

Which Activity does the source give for `COc1cccc(CNCc2nn(Cc3cccc(OC)c3)c3nc(-c4ccccc4Cl)c4cc(OC)c(OC)cc4c23)c1` here?
Its Activity is “inactive”.

organism: Homo sapiens; assay: Selectivity ratio of EC50 for human DOR expressed in human HTLA cells assessed as beta arrestin-2 recruitment to EC50 for human KOR expressed in human HTLA cells assessed as beta arrestin-2 recruitment; assay type: cell-based; conditions: not given

How did the Ratio EC50 turn out when `COc1cccc(Cn2nc(CNCc3cccc(OCc4ccccc4)c3)c3c4cc(OC)c(OC)cc4c(-c4ccccc4Cl)nc32)c1` was run?
Its Ratio EC50 is 22.

`COc1cccc(Cn2nc(CNCc3cccc(Oc4ccccc4)c3)c3c4cc(OC)c(OC)cc4c(-c4ccccc4Cl)nc32)c1` was tested. Which Ratio EC50 did it give?
Its Ratio EC50 is 5.

target: T2, Delta-type opioid receptor (Homo sapiens, UniProt P41143); assay: Inverse agonist activity at human DOR assessed as cAMP inhibition pretreated for 5 mins followed by forskolin treatment measured after 15 mins by Glo-Sensor cAMP cell based assay; assay type: functional; conditions: time 20.0 min
T2 sequence (P41143 whole entry): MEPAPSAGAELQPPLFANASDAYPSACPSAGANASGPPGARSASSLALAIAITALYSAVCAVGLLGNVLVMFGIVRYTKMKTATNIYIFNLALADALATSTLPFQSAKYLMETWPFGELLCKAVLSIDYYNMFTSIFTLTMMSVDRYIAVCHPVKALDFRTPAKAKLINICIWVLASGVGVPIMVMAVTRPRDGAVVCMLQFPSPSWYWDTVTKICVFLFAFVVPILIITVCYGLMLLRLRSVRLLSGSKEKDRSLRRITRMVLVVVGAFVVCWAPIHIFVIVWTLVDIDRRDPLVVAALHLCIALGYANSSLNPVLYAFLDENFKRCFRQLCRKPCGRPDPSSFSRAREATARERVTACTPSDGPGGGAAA

Which Activity does the source give for `COc1cccc(CNCc2nn(Cc3cccc(OC)c3)c3nc(-c4ccccc4Cl)c4cc(OC)c(OC)cc4c23)c1` here?
Its Activity is “inactive”.

target: T2, Delta-type opioid receptor; assay: Inverse agonist activity at human DOR expressed in human HTLA cells assessed as beta arrestin-2 recruitment by ONE-Glo luciferase assay; assay type: functional, cell-based; conditions: not given

`COc1cccc(CNCc2nn(Cc3cccc(OC)c3)c3nc(-c4ccccc4Cl)c4cc(OC)c(OC)cc4c23)c1` was tested. Which EC50 did it give?
Its EC50 is 0.483 µM.

How did the EC50 turn out when `COc1cccc(Cn2nc(CNCc3cccc(OCc4ccccc4)c3)c3c4cc(OC)c(OC)cc4c(-c4ccccc4Cl)nc32)c1` was run?
The EC50 was 0.207 µM.

With `COc1cccc(Cn2nc(CNCc3cccc(Oc4ccccc4)c3)c3c4cc(OC)c(OC)cc4c(-c4ccccc4Cl)nc32)c1` as the compound, how does the EC50 read?
The EC50 was 0.0495 µM.

target: T1, Kappa-type opioid receptor; assay: Inverse agonist activity at human KOR expressed in human HTLA cells assessed as beta arrestin-2 recruitment at 10 uM by ONE-Glo luciferase assay relative to 1-(5-(2-Chlorophenyl)-7,8-dimethoxy-3-(3-methoxybenzyl)-3H-pyrazolo(3,4-c)isoquinolin-1-yl)-N-(3-methoxybenzyl)-methanamine; assay type: functional, cell-based; conditions: not given

With `COc1cccc(Cn2nc(CNCc3cc4ccccc4[nH]3)c3c4cc(OC)c(OC)cc4c(-c4ccccc4Cl)nc32)c1` as the compound, how does the Emax read?
Its Emax is -98.3%.

For `COc1cccc(Cn2nc(CNCc3cccc(OCc4ccccc4)c3)c3c4cc(OC)c(OC)cc4c(-c4ccccc4Cl)nc32)c1`, which Emax is on record?
The Emax was -103%.

`COc1cccc(Cn2nc(CNCCc3cccc(Oc4ccccc4)c3)c3c4cc(OC)c(OC)cc4c(-c4ccccc4Cl)nc32)c1` was tested. Which Emax did it give?
Its Emax is -81.9%.

For `O=C(Cc1ccc(Cl)c(Cl)c1)N1CCCC[C@H]1CN1CCCC1`, which Emax is on record?
The Emax was -100%.

`COc1cccc(Cn2nc(CNCc3ccc(OC)c(OC)c3)c3c4cc(OC)c(OC)cc4c(-c4ccccc4Cl)nc32)c1` was tested. Which Emax did it give?
Its Emax is -103%.

`COc1cc2c(-c3ccccc3Cl)nc3c(c(CNCc4cccc(Oc5ccccc5)c4)nn3Cc3cccc(Cl)c3)c2cc1OC` was tested. Which Emax did it give?
The Emax was -101%.

For `COc1cccc(Cn2nc(CNCc3cccc(Oc4ccccc4)c3)c3c4cc(OC)c(OC)cc4c(-c4ccccc4Cl)nc32)c1`, which Emax is on record?
The Emax was -100%.

With `COc1ccc(CNCc2nn(Cc3cccc(OC)c3)c3nc(-c4ccccc4Cl)c4cc(OC)c(OC)cc4c23)cc1` as the compound, how does the Emax read?
The Emax was -98.2%.

For `COc1cc2c(-c3ccccc3Cl)nc3c(c(CNCc4cccc(Oc5ccccc5)c4)nn3CC3CCNCC3)c2cc1OC`, which Emax is on record?
Its Emax is -95.1%.

`COc1cccc(Cn2nc(CNCc3cccc4ccccc34)c3c4cc(OC)c(OC)cc4c(-c4ccccc4Cl)nc32)c1` was tested. Which Emax did it give?
Its Emax is -96.7%.

target: Mu-type opioid receptor (Homo sapiens) (UniProt P35372); assay: Displacement of [3H]naltrindole from MOR (unknown origin) upto 1 uM by radioligand binding assay relative to control; conditions: not given

`COc1cccc(Cn2nc(CNCc3cccc(OCc4ccccc4)c3)c3c4cc(OC)c(OC)cc4c(-c4ccccc4Cl)nc32)c1` was tested. Which inhibition did it give?
Its inhibition is 20%.

target: Mu-type opioid receptor (Homo sapiens) (UniProt P35372); assay: Inverse agonist activity at MOR (unknown origin) expressed in HEK293T cells assessed as beta arrestin-2 recruitment upto 10 uM incubated for 20 mins by NanoBiT assay; assay type: functional, cell-based; conditions: not given

Which Activity does the source give for `COc1cccc(CNCc2nn(Cc3cccc(OC)c3)c3nc(-c4ccccc4Cl)c4cc(OC)c(OC)cc4c23)c1` here?
Its Activity is “inactive”.

Which Activity does the source give for `COc1cccc(Cn2nc(CNCc3cc4ccccc4[nH]3)c3c4cc(OC)c(OC)cc4c(-c4ccccc4Cl)nc32)c1` here?
Its Activity is “inactive”.

`COc1cccc(Cn2nc(CNCc3cccc(OCc4ccccc4)c3)c3c4cc(OC)c(OC)cc4c(-c4ccccc4Cl)nc32)c1` was tested. Which Activity did it give?
Its Activity is “inactive”.

With `COc1cccc(Cn2nc(CNCCc3cccc(Oc4ccccc4)c3)c3c4cc(OC)c(OC)cc4c(-c4ccccc4Cl)nc32)c1` as the compound, how does the Activity read?
Its Activity is “inactive”.

For `COc1cccc(Cn2nc(CNCc3ccc(OC)c(OC)c3)c3c4cc(OC)c(OC)cc4c(-c4ccccc4Cl)nc32)c1`, which Activity is on record?
The Activity was “inactive”.

For `COc1cc2c(-c3ccccc3Cl)nc3c(c(CNCc4cccc(Oc5ccccc5)c4)nn3Cc3cccc(Cl)c3)c2cc1OC`, which Activity is on record?
The Activity was “inactive”.

`COc1cccc(Cn2nc(CNCc3cccc(Oc4ccccc4)c3)c3c4cc(OC)c(OC)cc4c(-c4ccccc4Cl)nc32)c1` was tested. Which Activity did it give?
The Activity was “inactive”.

Which Activity does the source give for `COc1ccc(CNCc2nn(Cc3cccc(OC)c3)c3nc(-c4ccccc4Cl)c4cc(OC)c(OC)cc4c23)cc1` here?
The Activity was “inactive”.

`COc1cc2c(-c3ccccc3Cl)nc3c(c(CNCc4cccc(Oc5ccccc5)c4)nn3CC3CCNCC3)c2cc1OC` was tested. Which Activity did it give?
Its Activity is “inactive”.

How did the Activity turn out when `COc1cccc(Cn2nc(CNCc3cccc4ccccc34)c3c4cc(OC)c(OC)cc4c(-c4ccccc4Cl)nc32)c1` was run?
The Activity was “inactive”.

target: T2, Delta-type opioid receptor; assay: Displacement of [3H]naltrindole from DOR (unknown origin) upto 1 uM by radioligand binding assay relative to control; conditions: not given

`COc1cccc(Cn2nc(CNCc3cccc(OCc4ccccc4)c3)c3c4cc(OC)c(OC)cc4c(-c4ccccc4Cl)nc32)c1` was tested. Which inhibition did it give?
The inhibition was 10%.

target: T1, Kappa-type opioid receptor; assay: Displacement of [3H]diprenorphine from human KOR expressed in HEK293 cells incubated for 60 mins by liquid scintillation method; assay type: cell-based; conditions: not given

For `COc1cccc(Cn2nc(CNCc3cccc(OCc4ccccc4)c3)c3c4cc(OC)c(OC)cc4c(-c4ccccc4Cl)nc32)c1`, which IC50 is on record?
The IC50 was 0.25 µM.
